The text below walks through data of ChEMBL document CHEMBL4052734, “Synthesis of novel 2-pyrazoline analogues with potent anti-inflammatory effect mediated by inhibition of phospholipase A2: Crystallographic, in silico docking and QSAR analysis” (Bioorg Med Chem Lett, 2017).

Converted amounts (≈) assume the structure as drawn. The source made the active and inactive calls. No cut-off for these calls is given here.

Assay [1] has as its system Aspergillus niger. The assay can be described thus: Antifungal activity against Aspergillus niger after 72 hrs by serial dilution method. It counts as functional.
The subject of assay [2] is Aspergillus flavus. The assay can be described thus: Antifungal activity against Aspergillus flavus after 72 hrs by serial dilution method. Format: functional.
Assay [3] has as its system Candida albicans. The assay can be described thus: Antifungal activity against Candida albicans MTCC 227 after 72 hrs by serial dilution method. It counts as functional.
Assay [4] deals with T1, Basic phospholipase A2 VRV-PL-VIIIa (Daboia russelii) (UniProt P59071).
T1 sequence (whole entry): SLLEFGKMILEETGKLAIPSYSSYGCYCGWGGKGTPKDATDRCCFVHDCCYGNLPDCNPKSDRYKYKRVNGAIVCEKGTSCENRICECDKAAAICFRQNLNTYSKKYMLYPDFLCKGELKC
Put plainly: (§1) Inhibition of Vipera russelii venom sPLA2 using DMPC as substrate preincubated for 2 mins followed by substrate addition measured after 30 mins.

For assay [5], the target named is T2, Basic phospholipase A2 VRV-PL-VIIIa (Daboia russelii, UniProt P59071).
T2 sequence (P59071 whole entry): T1 sequence (whole entry)
The description is as §1.

The subject of assay [6] is Staphylococcus aureus. Put plainly: Antibacterial activity against Staphylococcus aureus MTCC 737 after 24 hrs by serial dilution method. As to conditions: MTCC 737, 24 h. It counts as functional.
Assay [7] concerns Escherichia coli. The assay can be described thus: Antibacterial activity against Escherichia coli MTCC 1687 after 24 hrs by serial dilution method. Format: functional. As to conditions: MTCC 1687, 24 h.
For assay [8], the system named is Bacillus subtilis. The assay can be described thus: Antibacterial activity against Bacillus subtilis MTCC 441 after 24 hrs by serial dilution method. Conditions: MTCC 441, 24 h. It counts as functional.
For assay [9], the target named is T1, Basic phospholipase A2 VRV-PL-VIIIa (Daboia russelii). Put plainly: Inhibition of Vipera russelii venom sPLA2 using DMPC as substrate at 11.930 uM preincubated for 2 mins followed by substrate addition measured after 30 mins in presence of 1 to 12 mM CaCl2.
For assay [10] the target is unchanged. The assay can be described thus: Inhibition of Vipera russelii venom sPLA2 using DMPC as substrate at 11.102 uM preincubated for 2 mins followed by substrate addition measured after 30 mins in presence of 1 to 12 mM CaCl2.
For assay [11] the target is unchanged. Put plainly: Inhibition of Vipera russelii venom sPLA2 using DMPC as substrate at 10.214 uM preincubated for 2 mins followed by substrate addition measured after 30 mins in presence of 1 to 12 mM CaCl2.

As usually defined, the MIC90 is the lowest concentration that inhibits either 90% of growth or 90% of the strains tested, depending on the study. High values mean lower susceptibility, low ones higher susceptibility. As a reminder, the IC50 is the midpoint of a concentration-inhibition curve. High values mean weaker potency, low ones greater potency.

In the case of NYSTATIN, the MIC90 in [1] is 25 µg/mL; in assay [2] it was 25 µg/mL; in assay [3], 20 µg/mL.
Regarding `COc1ccc(C2=NN(c3ccccc3)C(c3cccc(Cl)c3Cl)C2)cc1` (stereo unspecified), the inhibition result in assay [4] was “Dose-dependent effect”. In addition, the midpoint of inhibition in assay [5], the IC50, lay at 11.9 µM. Besides, the MIC90 was 40 µg/mL (≈ 101 µM) in assay [6]; 40 µg/mL (≈ 101 µM) in [7]; 140 µg/mL (≈ 352 µM) in [8]; 50 µg/mL (≈ 126 µM) in [1]; 125 µg/mL (≈ 315 µM) in [2]; 30 µg/mL (≈ 75.5 µM) in assay [3] (MTCC 227, 72 h). In assay [9], the inhibition entry is “Active”.
In the case of `Clc1cccc(N2N=C(c3ccccc3)CC2c2cccc(Cl)c2Cl)c1` (stereo unspecified), the inhibition entry in [4] was “Dose-dependent effect”. The molecule also had an IC50 in assay [5] of 19.3 µM. For the same molecule, the MIC90 in assay [6] was found to be 20 µg/mL (≈ 49.8 µM); in assay [7], 20 µg/mL (≈ 49.8 µM); in assay [8], 120 µg/mL (≈ 299 µM); in assay [1] it was 20 µg/mL (≈ 49.8 µM); in assay [2], 125 µg/mL (≈ 311 µM); in assay [3] (MTCC 227, 72 h), 15 µg/mL (≈ 37.3 µM).
As to `Clc1cccc(C2CC(c3ccc4c(c3)OCO4)=NN2c2ccccc2)c1Cl` (stereo unspecified), in assay [4], the inhibition result was “Dose-dependent effect”. Half-maximal inhibition in assay [5] (IC50) was put at 48.2 µM. In addition, the MIC90 in [6] worked out at 130 µg/mL (≈ 316 µM); in assay [7], 140 µg/mL (≈ 340 µM); in assay [8], 140 µg/mL (≈ 340 µM); in assay [1] it was 130 µg/mL (≈ 316 µM); in assay [2], 130 µg/mL (≈ 316 µM); in [3] (MTCC 227, 72 h) it was 120 µg/mL (≈ 292 µM).
`Clc1ccc(C2=NN(c3cccc(Cl)c3)C(c3cccc(Cl)c3Cl)C2)cc1` (stereo unspecified): the inhibition entry in assay [4] was “Dose-dependent effect”. The molecule also came in with an IC50 in assay [5] of 14.6 µM. For the same molecule, the MIC90 in assay [6] is 10 µg/mL (≈ 22.9 µM); in assay [7], 15 µg/mL (≈ 34.4 µM); in assay [8] it was 100 µg/mL (≈ 229 µM); in assay [1] it was 15 µg/mL (≈ 34.4 µM); in [2] it was 110 µg/mL (≈ 252 µM); in assay [3] (MTCC 227, 72 h), 15 µg/mL (≈ 34.4 µM).
As to `COc1cccc(C2=NN(c3cccc(Cl)c3)C(c3cccc(Cl)c3Cl)C2)c1` (stereo unspecified), the inhibition entry in [4] was “Dose-dependent effect”. This molecule displayed an IC50 in assay [5] of 30.1 µM. Moreover, the MIC90 in [6] turned out to be 50 µg/mL (≈ 116 µM); in assay [7], 30 µg/mL (≈ 69.5 µM); in assay [8], 125 µg/mL (≈ 290 µM); in assay [1] it was 60 µg/mL (≈ 139 µM); in [2], 130 µg/mL (≈ 301 µM); in [3] (MTCC 227, 72 h), 50 µg/mL (≈ 116 µM).
In the case of `Clc1cccc(C2CC(c3ccccc3)=NN2c2ccccc2)c1Cl` (stereo unspecified), the inhibition entry in [4] was “Dose-dependent effect”. Besides, half-maximal inhibition in [5] (IC50) required 12 µM. Moreover, the MIC90 in assay [6] was found to be 50 µg/mL (≈ 136 µM); in assay [7] it was 75 µg/mL (≈ 204 µM); in assay [8] it was 125 µg/mL (≈ 340 µM); in [1], 30 µg/mL (≈ 81.7 µM); in [2], 110 µg/mL (≈ 299 µM); in assay [3] (MTCC 227, 72 h), 25 µg/mL (≈ 68.1 µM).
On to `Fc1ccc(C2=NN(c3ccccc3)C(c3cccc(Cl)c3Cl)C2)cc1` (stereo unspecified), for which the inhibition result in assay [4] was “Dose-dependent effect”. This molecule also returned an IC50 in [5] of 11.1 µM. Moreover, the MIC90 amounted to 40 µg/mL (≈ 104 µM) in assay [6]; 25 µg/mL (≈ 64.9 µM) in assay [7]; 125 µg/mL (≈ 324 µM) in assay [8]; 30 µg/mL (≈ 77.9 µM) in assay [1]; 120 µg/mL (≈ 311 µM) in assay [2]; 50 µg/mL (≈ 130 µM) in assay [3] (MTCC 227, 72 h). Also, the inhibition result in assay [10] was “Active”.
For the molecule `Cc1ccc(C2=NN(c3ccccc3)C(c3cccc(Cl)c3Cl)C2)cc1` (stereo unspecified), the inhibition entry in [4] was “Dose-dependent effect”. In [5], this molecule yielded an IC50 of 21.7 µM. The MIC90 was 60 µg/mL (≈ 157 µM) in assay [6]; 60 µg/mL (≈ 157 µM) in [7]; 120 µg/mL (≈ 315 µM) in assay [8]; 75 µg/mL (≈ 197 µM) in assay [1]; 120 µg/mL (≈ 315 µM) in assay [2]; 60 µg/mL (≈ 157 µM) in assay [3] (MTCC 227, 72 h).
Take `Fc1ccc(C2=NN(c3cccc(Cl)c3)C(c3cccc(Cl)c3Cl)C2)cc1` (stereo unspecified): the inhibition result in assay [4] is “Dose-dependent effect”. The molecule further gave an IC50 in [5] of 19.2 µM. The MIC90 is 40 µg/mL (≈ 95.3 µM) in assay [6]; 25 µg/mL (≈ 59.6 µM) in assay [7]; 120 µg/mL (≈ 286 µM) in assay [8]; 30 µg/mL (≈ 71.5 µM) in assay [1]; 130 µg/mL (≈ 310 µM) in [2]; 50 µg/mL (≈ 119 µM) in assay [3] (MTCC 227, 72 h).
For `COc1cccc(C2=NN(c3ccccc3)C(c3cccc(Cl)c3Cl)C2)c1` (stereo unspecified), the inhibition entry in [4] was “Dose-dependent effect”. For the same molecule, in assay [5], the IC50 came to 29.8 µM. Also, the MIC90 is 50 µg/mL (≈ 126 µM) in [6]; 50 µg/mL (≈ 126 µM) in [7]; 130 µg/mL (≈ 327 µM) in [8]; 40 µg/mL (≈ 101 µM) in assay [1]; 120 µg/mL (≈ 302 µM) in [2]; 40 µg/mL (≈ 101 µM) in assay [3] (MTCC 227, 72 h).
For the molecule `Clc1ccc(C2=NN(c3ccccc3)C(c3cccc(Cl)c3Cl)C2)cc1` (stereo unspecified), in assay [4], the inhibition entry is “Dose-dependent effect”. 10.2 µM corresponded to half-maximal inhibition in [5] (IC50). Further, the MIC90 in assay [6] came to 15 µg/mL (≈ 37.3 µM); in assay [7], 20 µg/mL (≈ 49.8 µM); in [8], 125 µg/mL (≈ 311 µM); in assay [1], 25 µg/mL (≈ 62.2 µM); in [2], 120 µg/mL (≈ 299 µM); in assay [3] (MTCC 227, 72 h), 15 µg/mL (≈ 37.3 µM). The inhibition entry in assay [11] is “Active”.
In the case of `COc1ccccc1C1=NN(c2cccc(Cl)c2)C(c2cccc(Cl)c2Cl)C1` (stereo unspecified), the inhibition entry in assay [4] was “Dose-dependent effect”. In assay [5], this molecule showed an IC50 of 35.1 µM. Also, the MIC90 in assay [6] was determined as 40 µg/mL (≈ 92.6 µM); in assay [7], 40 µg/mL (≈ 92.6 µM); in assay [8], 140 µg/mL (≈ 324 µM); in assay [1], 50 µg/mL (≈ 116 µM); in [2], 130 µg/mL (≈ 301 µM); in assay [3] (MTCC 227, 72 h) it was 40 µg/mL (≈ 92.6 µM).
As to `COc1ccccc1C1=NN(c2ccccc2)C(c2cccc(Cl)c2Cl)C1` (stereo unspecified), the inhibition entry in assay [4] is “Dose-dependent effect”. The molecule also gave an IC50 in assay [5] of 30.3 µM. The MIC90 in assay [6] is 40 µg/mL (≈ 101 µM); in assay [7], 50 µg/mL (≈ 126 µM); in assay [8] it was 125 µg/mL (≈ 315 µM); in [1], 40 µg/mL (≈ 101 µM); in [2], 125 µg/mL (≈ 315 µM); in [3] (MTCC 227, 72 h), 30 µg/mL (≈ 75.5 µM).
As for `Clc1cccc(N2N=C(c3ccc4c(c3)OCO4)CC2c2cccc(Cl)c2Cl)c1` (stereo unspecified), the inhibition entry in assay [4] is “Dose-dependent effect”. In assay [5], this molecule had an IC50 of 49.8 µM. Also, the MIC90 in assay [6] worked out at 120 µg/mL (≈ 269 µM); in [7], 130 µg/mL (≈ 292 µM); in [8], 140 µg/mL (≈ 314 µM); in assay [1], 120 µg/mL (≈ 269 µM); in assay [2], 120 µg/mL (≈ 269 µM); in [3] (MTCC 227, 72 h) it was 130 µg/mL (≈ 292 µM).
Regarding `O=C(O)c1cn(C2CC2)c2cc(N3CCNCC3)c(F)cc2c1=O` [CIPROFLOXACIN], the MIC90 in assay [6] is 20 µg/mL (≈ 60.4 µM); in assay [7] it was 20 µg/mL (≈ 60.4 µM); in assay [8], 40 µg/mL (≈ 121 µM).
